Earlier results in article PMC8748714, “Dynamics of GLP-1R peptide agonist engagement are correlated with kinetics of G protein activation” (Nature Communications, 2022).

Columns and labels:
GLP-1R [1] = tested on: GLP-1R
Text: Despite this conservation, these peptides induce distinct signalling profiles and have different mechanisms for receptor interaction. […] While there was also conservation in the TM bundle interactions when engaged by the four peptides, differences were identified in how each peptide uses different networks to facilitate G protein coupling. This transmission of information across the TM bundle also enables G ...

GLP-1R [2] = settings: vs full-length exendin-4

## GLP-1 (Ala2Gly): GLP-1 with Ala2Gly substitution
GLP-1R [1]; ref 31-33 (chimera ref 32)
  effect of residue 2 substitution on affinity: reduced affinity

## exendin(9–39): N-terminally truncated exendin-4 lacking the first 8 amino acids
GLP-1R [1]; exendin(9–39) vs exendin-4, GLP-1(15–36) vs GLP-1
  lower affinity than corresponding full-length peptide: 10–30 fold

## truncation of the first two residues of exendin-4: exendin-4 truncated by the first two residues
GLP-1R [1]; vs full-length exendin-4
  affinity on truncation of first two residues: does not significantly alter its affinity
GLP-1R [2]
  decrease in potency for cAMP signalling on truncation of first two residues: ~ 200 fold
